One series is described as follows: Solubility. It is filed as physicochemical.
A further series has as its system U937 monocyte cells. The conditions noted are these: for % Viability: human.

Like-named read-outs stand apart in the source and are kept apart here.

Method for U937 monocyte cells: The human monocytic cell line U937 was obtained from the American Type Culture Collection (Manassas, Va., USA). Cells are maintained in RPMI 1640 media enriched with 10% heat-inactivated FBS, 2 mM L-Glutamine, 10 mM HEPES buffer, 0.1 mM non-essential Amino Acids, 1% antibiotic/antimycotic, and 50 uM beta mercaptoethanol at 37° C., 6% CO2.

On to C70-Tetraphosphate, for which the “dissolution in aqueous solution” value in the series “Solubility” (slightly basic aqueous solution, pH adjusted to 7.4) was “remained dissolved”.
As for C70-(DMAE)4, in “Solubility” (buffer), the solubility in buffer result is “moderate solubility”.
Turning to `O=C1O[C@H]([C@@H](O)CO)C(O)=C1O` [Vitamin C], the “toxic effects on the viability of serum-starved cell” value in the series on U937 monocyte cells is recorded as “did not have toxic effects”. The “% Viability” value in the series on U937 monocyte cells (3 day, 0.67 uM) was 98.8% ± 0.06; with U937 monocyte cells (3 day, 6.7 uM), 97.4% ± 1.86; in the series on U937 monocyte cells (3 day, 67 uM), 98.2% ± 0.67; in the series on U937 monocyte cells (6 day, 0.67 uM), 93.8% ± 1.09; with U937 monocyte cells (6 day, 6.7 uM), 91.2% ± 0.33; with U937 monocyte cells (6 day, 67 uM) it was 90.9% ± 0.07. Besides, the “% Viability” value was 60.9% ± 1.13 in the series with U937 monocyte cells (9 day, 0.67 uM); 61.8% ± 1.10 in the series on U937 monocyte cells (9 day, 6.7 uM); 60.7% ± 0.28 in the series on U937 monocyte cells (9 day, 67 uM).
Turning to C70-Tetrapyridine, in the series “Solubility” (DI water and phosphate buffered saline), the solubility (commonly the concentration that dissolves in the medium under given conditions) was greater than 2000 µg/mL.

For the origin of these results see US20110251158A1, “FULLERENE THERAPIES FOR INFLAMMATION AND INHIBITION OF BUILD-UP OF ARTERIAL PLAQUE” (Luna Innovations Incorporated, priority 2008, published 2011).
